According to patent US10829520B2, “Beta-hairpin peptidomimetics” (POLYPHOR AG, priority 2015, dated 2020):
Like-named read-outs stand apart in the source and are kept apart here. Where a SMILES comes first, the peptide text is derived from it. Bridges are numbered along the chain shown (N, C = ends). [ ]: non-standard residue; d: D form. Tle = CC(C)(C)[C@H](N)C(=O)O; NMeC = CN[C@@H](CS)C(=O)O; dDab = NCC[C@@H](N)C(=O)O; Nle = CCCC[C@H](N)C(=O)O; Orn = NCCC[C@H](N)C(=O)O; Dab = NCC[C@H](N)C(=O)O; Dap = NC[C@H](N)C(=O)O; Sar = CNCC(=O)O

Key:
Format in all cases: cell-based
[1] = test system: human red blood cells (hRBC); assay: Hemolysis of human red blood cells; settings: 100 μg/mL
Method in brief: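 Hemolysis was read as supernatant absorbance at 540 nm and expressed as a percentage of Triton X-100 (2.5%) lysis. Washed human red cells (20% v/v) had been exposed to each peptide at 100 μg/mL for 1 h at 37° C.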

[2] = test system: Klebsiella pneumoniae SSI #3010
Method in brief: (§1)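 CLSI broth microdilution in cation-adjusted Mueller-Hinton II broth with 0.002% Polysorbate 80, inoculum appr. 10^6 CFU/mL, peptides in serial two-fold dilutions. MIC (μg/mL) is the lowest concentration with no visible growth after 18-20 hours at 35° C.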

[3] = test system: Klebsiella pneumoniae 968733
Escherichia coli 926415 = test system: Escherichia coli 926415
[4] = test system: Acinetobacter baumannii DSM 30008
Method in brief: as §1

[5] = test system: Pseudomonas aeruginosa ATCC 27853
Method in brief: as §1

[6] = test system: Acinetobacter baumannii 872842
[7] = test system: Escherichia coli ATCC 25922
Method in brief: as §1

[8] = clinical isolate, Mueller-Hinton II broth, P-80 0.002% present

Row | Structure (SMILES) | Hemolysis at 100 μg/mL ([1]; red cells of human, 1 h) | Klebsiella pneumoniae SSI #3010 MIC ([2]; SSI #3010) | Klebsiella pneumoniae 968733 MIC [3]; 968733 | Escherichia coli 926415 MIC (Escherichia coli 926415; 926415) | Acinetobacter baumannii DSM 30008 MIC ([4]; DSM 30008) | Pseudomonas aeruginosa ATCC 27853 MIC ([5]; ATCC 27853) | Acinetobacter baumannii 872842 MIC [6]; 872842 | Escherichia coli ATCC 25922 MIC ([7]; ATCC 25922) | Hemolysis at 100 μg/mL ([1]; 20% hRBC, 1 h at 37° C.) | Klebsiella pneumoniae SSI #3010 MIC ([2]; Mueller-Hinton II broth) | Klebsiella pneumoniae 968733 MIC [3, 8] | Escherichia coli 926415 MIC (Escherichia coli 926415; [8]) | Acinetobacter baumannii DSM 30008 MIC ([4]; Mueller-Hinton II broth) | Pseudomonas aeruginosa ATCC 27853 MIC ([5]; Mueller-Hinton II broth) | Acinetobacter baumannii 872842 MIC [6, 8] | Escherichia coli ATCC 25922 MIC ([7]; Mueller-Hinton II broth)
1 | CCCC[C@@H]1NC(=O)[C@@H]2CCCN2C(=O)[C@H]2CCCN2C(=O)[C@H](CO)NC(=O)[C@H](C)NC(=O)[C@H](C(C)(C)C)NC(=O)[C@@H]2CCC(=O)NCC[C@H](NC(=O)[C@H](Cc3ccc(O)cc3)NC(=O)[C@H](CN)NC1=O)C(=O)N[C@@H](CCCN)C(=O)N[C@H](C(=O)N[C@H](CCN)C(=O)N[C@H]1CCNC(=O)[C@H]([C@@H](C)O)NC(=O)[C@H](CCN)NC(=O)[C@H](CCN)NC(=O)[C@H](CC(C)C)NC(=O)[C@@H](Cc3ccccc3)NC(=O)[C@H](CCN)NC1=O)CSSC[C@H](N)C(=O)N[C@@H](Cc1c[nH]c3ccccc13)C(=O)N2 [Ex. 210] (H-CWE[Tle]AS[dP]P[Nle][Dap]Y[Dab][Orn]C[dDab][Dab][Dab][dF]L[Dab][Dab]T; disulfide 1-14; lactam 3-12, 16-C) | 1% | 0.5 µg/mL | 4 µg/mL | 0.5 µg/mL | 1 µg/mL | 1 µg/mL | 2 µg/mL | 0.25 µg/mL |  |  |  |  |  |  |  | 
2 | CC(=O)N[C@H]1CSSC[C@@H](C(=O)N[C@H](CCN)C(=O)N[C@H]2CCNC(=O)[C@H]([C@@H](C)O)NC(=O)[C@H](CCN)NC(=O)[C@H](CCN)NC(=O)[C@H](CC(C)C)NC(=O)[C@@H](Cc3ccccc3)NC(=O)[C@H](CCN)NC2=O)NC(=O)[C@H](CCCN)NC(=O)[C@H](CC(N)=O)NC(=O)[C@H](Cc2ccc(O)cc2)NC(=O)[C@@H]2CSSC[C@H](NC(=O)[C@H](Cc3ccc(O)cc3)NC(=O)[C@H](CO)NC(=O)[C@H](Cc3c[nH]c4ccccc34)NC1=O)C(=O)N[C@@H](C(C)C)C(=O)N[C@H](CCN)C(=O)N[C@@H](CCCNC(=N)N)C(=O)N[C@@H](CC(C)C)C(=O)N2 [Ex. 211] (Ac-CWSYCV[dDab]RLCYN[Orn]C[dDab][Dab][Dab][dF]L[Dab][Dab]T; disulfide 1-14, 5-10; lactam 16-C) |  |  |  |  |  |  |  |  | 2% | 1 µg/mL | 8 µg/mL | 2 µg/mL | 1 µg/mL | 2 µg/mL | 2 µg/mL | 0.5 µg/mL
3 | CC(C)C[C@@H]1NC(=O)[C@@H](CC(C)C)NC(=O)[C@H](CCN)NC(=O)[C@@H](NC(=O)[C@H](CCN)NC(=O)CN(C)C(=O)[C@@H]2CSSC[C@H](N)C(=O)N[C@@H](Cc3c[nH]c4ccccc34)C(=O)N[C@@H](CCN)C(=O)N[C@@H](C(C)C)C(=O)N[C@H]3CSSC[C@H](NC(=O)[C@H](CC(C)C)NC(=O)[C@@H]4CCCN4C(=O)[C@H]4CCCN4C(=O)[C@H](CO)NC3=O)C(=O)N[C@@H](Cc3ccc(O)cc3)C(=O)N[C@@H](CCN)C(=O)N[C@@H](CCCN)C(=O)N2)CCNC(=O)[C@H]([C@@H](C)O)NC(=O)[C@H](CCN)NC(=O)[C@H](CCN)NC1=O [Ex. 212] (H-CW[Dab]VCS[dP]PLCY[Dab][Orn]C[Sar][Dab][Dab][Dab][dL]L[Dab][Dab]T; disulfide 1-14, 5-10; lactam 17-C) |  |  |  |  |  |  |  |  | 1% | 2 µg/mL | 4 µg/mL | 1 µg/mL | 1 µg/mL | 0.5 µg/mL | 1 µg/mL | 0.5 µg/mL
4 | CC(C)C[C@@H]1NC(=O)[C@@H](CC(C)C)NC(=O)[C@H](CCN)NC(=O)[C@@H](NC(=O)[C@H](CCN)NC(=O)CN(C)C(=O)[C@@H]2CSSC[C@H](N)C(=O)N[C@@H](Cc3c[nH]c4ccccc34)C(=O)N[C@@H](CCN)C(=O)N[C@@H](C(C)C)C(=O)N[C@H]3CSSC[C@H](NC(=O)[C@H](CC(C)C)NC(=O)[C@@H]4CCCN4C(=O)[C@H]4CCCN4C(=O)[C@H](Cc4ccc(O)cc4)NC3=O)C(=O)N[C@@H](Cc3ccc(O)cc3)C(=O)N[C@@H](CCN)C(=O)N[C@@H](CCCN)C(=O)N2)CCNC(=O)[C@H]([C@@H](C)O)NC(=O)[C@H](CCN)NC(=O)[C@H](CCN)NC1=O [Ex. 213] (H-CW[Dab]VCY[dP]PLCY[Dab][Orn]C[Sar][Dab][Dab][Dab][dL]L[Dab][Dab]T; disulfide 1-14, 5-10; lactam 17-C) |  |  |  |  |  |  |  |  | 3% | 0.5 µg/mL | 1 µg/mL | 0.5 µg/mL | 0.5 µg/mL | 0.5 µg/mL | 0.5 µg/mL | 0.125 µg/mL
5 | CCCC[C@@H]1NC(=O)[C@@H]2CCCN2C(=O)[C@H]2CCCN2C(=O)[C@H](CO)NC(=O)[C@H](CC(N)=O)NC(=O)[C@H](C(C)(C)C)NC(=O)[C@H](CCN)NC(=O)[C@H](Cc2c[nH]c3ccccc23)NC(=O)[C@@H](NC)CSSC[C@@H](C(=O)N(C)CC(=O)N[C@H](CCN)C(=O)N[C@@H](CCN)C(=O)N[C@H]2CCNC(=O)[C@H]([C@@H](C)O)NC(=O)[C@H](CCN)NC(=O)[C@H](CCN)NC(=O)[C@H](CC(C)C)NC(=O)[C@@H](CC(C)C)NC(=O)[C@H](CCN)NC2=O)NC(=O)[C@H](CCCN)NC(=O)[C@H](CCN)NC(=O)[C@H](Cc2ccc(O)cc2)NC(=O)[C@H](CN)NC1=O [Ex. 214] (H-[NMeC]W[Dab][Tle]NS[dP]P[Nle][Dap]Y[Dab][Orn]C[Sar][dDab][Dab][Dab][Dab][dL]L[Dab][Dab]T; disulfide 1-14; lactam 18-C) | 1% | 1 µg/mL | 8 µg/mL | 2 µg/mL | 2 µg/mL | 0.5 µg/mL | 0.5 µg/mL | 0.5 µg/mL |  |  |  |  |  |  |  | 
6 | CCCC[C@@H]1NC(=O)[C@@H]2CCCN2C(=O)[C@H]2CCCN2C(=O)[C@H](CO)NC(=O)[C@H](C)NC(=O)[C@H](C(C)(C)C)NC(=O)[C@H](CCN)NC(=O)[C@H](Cc2c[nH]c3ccccc23)NC(=O)[C@@H](N)CSSC[C@@H](C(=O)N[C@H](CCN)C(=O)N[C@H]2CCN(C)C(=O)[C@H]([C@@H](C)O)NC(=O)[C@H](CCN)NC(=O)[C@H](CCN)NC(=O)[C@H](CC(C)C)NC(=O)[C@@H](Cc3ccccc3)NC(=O)[C@H](CCN)NC2=O)NC(=O)[C@H](CCCN)NC(=O)[C@H](CCN)NC(=O)[C@H](Cc2ccc(O)cc2)NC(=O)[C@H](CO)NC1=O [Ex. 215] | <1% | 0.25 µg/mL | 0.5 µg/mL | 0.25 µg/mL | 0.25 µg/mL | 1 µg/mL | 1 µg/mL | 0.25 µg/mL |  |  |  |  |  |  |  | 
7 | CCCC[C@@H]1NC(=O)[C@@H]2CCCN2C(=O)[C@H]2CCCN2C(=O)[C@H](CO)NC(=O)[C@H](C)NC(=O)[C@H](C(C)(C)C)NC(=O)[C@H](CCN)NC(=O)[C@H](Cc2c[nH]c3ccccc23)NC(=O)[C@@H](N)CSSC[C@@H](C(=O)N[C@H](CCN)C(=O)N[C@H]2CCN(C)C(=O)[C@H](C(C)C)NC(=O)[C@H](CCN)NC(=O)[C@H](CCN)NC(=O)[C@H](CC(C)C)NC(=O)[C@@H](Cc3ccccc3)NC(=O)[C@H](CCN)NC2=O)NC(=O)[C@H](CCCN)NC(=O)[C@H](CCN)NC(=O)[C@H](Cc2ccc(O)cc2)NC(=O)[C@H](CO)NC1=O [Ex. 216] | 1% | 0.125 µg/mL | 0.25 µg/mL | 0.0625 µg/mL | 0.125 µg/mL | 0.5 µg/mL | 0.5 µg/mL | 0.125 µg/mL |  |  |  |  |  |  |  | 
